#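 Assay format: 96-well plates, 48-hour exposure. GI50 is the concentration that inhibits growth by half.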 Activity calls are given as the source filed them. Rule as the data show it: active = GI50 up to about 1.1 µM and inactive = higher. *1 amine or outer side, *2 acyl side, *3 side chain or, on linkers, in order; H or OH if unused. Where a SMILES comes first, the peptide text is derived from it. Bridges are numbered along the chain shown (N, C = ends). [ ]: non-standard residue; d: D form. X36 = CC[C@H](C)[C@@H](N[*:1])[C@@H](O)CC(=O)O[C@H](C(=O)[C@H](C)C(=O)[*:2])C(C)C; NMeY = CN[C@@H](Cc1ccc(O)cc1)C(=O)O
# Columns and labels:
# Assay in all cases: NCI-60 cell line screen, 48 h
# DMS-114 = test system: DMS-114
# SNB-78 = test system: SNB-78
# DMS-273 = test system: DMS-273
# HOP-18 = test system: HOP-18
# M19-MEL = test system: M19-MEL
# LXFL 529 = test system: LXFL 529
# XF498 = test system: XF498
# BT-549 = test system: BT-549
structure (smiles),measurement,setting,value
O=C1OC(c2ccccc2)=N/C1=C\c1cccc2ccccc12,GI50,DMS-114,> 100 µM (inactive)
same,GI50,SNB-78,> 100 µM (inactive)
same,GI50,DMS-273,> 100 µM (inactive)
same,GI50,HOP-18,> 100 µM (inactive)
same,GI50,M19-MEL,> 100 µM (inactive)
same,GI50,LXFL 529,> 100 µM (inactive)
same,GI50,XF498,> 100 µM (inactive)
Oc1cc(O)c2c(c1)OC(c1ccc(O)c(O)c1)C(OC1(c3cc(O)c(O)c(O)c3)Oc3cc(O)cc(O)c3C(O)C1O)C2 (configuration not stated),GI50,BT-549,26.8 µM (inactive)
CC[C@H](C)[C@H]1NC(=O)[C@@H](N)[C@@H](C)OC(=O)[C@H](Cc2ccc(OC)cc2)N(C)C(=O)[C@@H]2CCCN2C(=O)[C@H](CC(C)C)NC(=O)[C@@H](C)C(=O)[C@H](C(C)C)OC(=O)C[C@@H]1O (H-T[X36]LP[NMeY](Me); ester 1-C),GI50,BT-549,20.2 µM (inactive)
O=C1C[C@@H]2[C@@H](CCC23CC3)N1,GI50,DMS-114,> 100 µM (inactive)
same,GI50,SNB-78,> 100 µM (inactive)
same,GI50,DMS-273,> 100 µM (inactive)
same,GI50,HOP-18,> 100 µM (inactive)
same,GI50,M19-MEL,> 100 µM (inactive)
same,GI50,LXFL 529,> 100 µM (inactive)
c1ccc2/c3[nH]/c(c2c1)=N\c1ccc(cc1)-c1nc2ccc(cc2o1)/N=c1/[nH]/c(c2ccccc12)=N/c1ccc2nc(oc2c1)-c1ccc(cc1)\N=3,GI50,BT-549,> 100 µM (inactive)
Cc1ccc(/C=C2\CN(C)CC3C2=NN(c2ccccc2)C3c2ccc(C)cc2)cc1 (configuration not stated),GI50,BT-549,> 100 µM (inactive)
O=C(CCN1CCCC1)CC(c1ccccc1)c1c(O)c2ccccc2oc1=O (configuration not stated),GI50,DMS-114,> 100 µM (inactive)
same,GI50,SNB-78,> 100 µM (inactive)
same,GI50,DMS-273,> 100 µM (inactive)
same,GI50,M19-MEL,> 100 µM (inactive)
same,GI50,LXFL 529,> 100 µM (inactive)
same,GI50,XF498,> 100 µM (inactive)
C=C1c2nc3ccccc3n2C=C(c2ccc(Cl)cc2)N1c1ccc(OCCN2CCOCC2)cc1,GI50,BT-549,39.3 µM (inactive)
Cc1nnc(CC#N)n1NC(=O)CC#N,GI50,BT-549,> 100 µM (inactive)
CCCCNC(=S)Nc1nc(C(=O)NNC(=S)Nc2ccccc2)cs1,GI50,BT-549,> 100 µM (inactive)
O=C(O)CN1C(=O)c2ccc(NC(=O)C(=O)O)cc2S1(=O)=O,GI50,BT-549,> 100 µM (inactive)
CSc1nc(SC)c2ncn(C3CC(Oc4ccc(C)cc4)C(COc4ccc(C)cc4)O3)c2n1 (configuration not stated),GI50,BT-549,> 100 µM (inactive)
Oc1c(Br)cc(/C=C/c2cccc(/C=C/c3cc(Br)c(O)c(Br)c3)n2)cc1Br,GI50,BT-549,26.1 µM (inactive)
CCC(=O)n1c(=O)n(-c2ccc([N+](=O)[O-])cc2)c(=O)n1C(=O)CC,GI50,BT-549,> 100 µM (inactive)
c1c[nH]c(CN2CCOCC2)n1,GI50,BT-549,> 100 µM (inactive)
Cc1ccc(S(=O)(=O)NC(CCC(=O)NN)C(=O)NN)cc1 (configuration not stated),GI50,BT-549,> 100 µM (inactive)
CN(C)c1nc(N)nc(CCl)n1,GI50,BT-549,40 µM (inactive)
O=C1CC(C(=O)O)Cc2c(Br)ccc(O)c21 (configuration not stated),GI50,BT-549,> 100 µM (inactive)
Cc1cc(O)c2c3c(ccc2c1)C(=O)c1c(O)cccc1C3=O [TETRANGULOL],GI50,BT-549,55.5 µM (inactive)
C=CCN1C[C@H](C)N([C@H](c2ccc(C(=O)N(CC)CCO)cc2)c2cccc(OC)c2)C[C@H]1C,GI50,BT-549,> 100 µM (inactive)
O=C1CS(=O)(=O)C(c2cccc(Oc3ccccc3)c2)N1C1CC1 (configuration not stated),GI50,BT-549,41.7 µM (inactive)
O=c1[nH]nc(Cc2ccccc2)n1N=C1CCCCC1,GI50,BT-549,> 100 µM (inactive)
CCOP(=O)(OCC)C(=C1C=C(C(C)(C)C)C(=O)C(C(C)(C)C)=C1)P(=O)(OCC)OCC,GI50,BT-549,2.86 µM (inactive)
O=C(COc1ccc(OCC(=O)N2C(=O)CN(c3ccc(Cl)cc3)C2=S)cc1)N1C(=O)CN(c2ccc(Cl)cc2)C1=S,GI50,BT-549,31.5 µM (inactive)
Clc1ccc(CCNC2(c3cc4ccccc4s3)CCCCC2)cc1Cl,GI50,BT-549,28.2 µM (inactive)
Cc1ccc(-c2cc(=O)c3cc(C)c(C)c(C(=O)O)c3o2)cc1[N+](=O)[O-],GI50,DMS-114,> 100 µM (inactive)
same,GI50,SNB-78,> 100 µM (inactive)
same,GI50,DMS-273,> 100 µM (inactive)
same,GI50,HOP-18,> 100 µM (inactive)
same,GI50,M19-MEL,> 100 µM (inactive)
same,GI50,LXFL 529,> 100 µM (inactive)
